The values below come from patent US12227495B2, “Herbicidal compounds” (SYNGENTA CROP PROTECTION AG, priority 2018, dated 2025).

What all share (assay type): in vivo
Common to all, as to conditions: evaluated after 13 days

The test system of assay [1] is Lolium perenne (LOLPE). Briefly: Post-emergence herbicide test, glasshouse, percentage damage. The method in brief: (§1)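 Percentage damage, recorded 13 days after treatment, is given as a five-point score (1=0-20%, 2=21-40%, 3=41-60%, 4=61-80%, 5=81-100%). Plants grown in soil pots under 24/16 °C, 14 h light and 65% humidity received a 500 g/ha spray (unless stated otherwise).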

Assay [2] relates to Echinochloa crus-galli (ECHCG). The assay is described as above. The method in brief:
as §1

Assay [3] deals with Ipomoea hederacea (IPOHE). Described as above. An outline of the steps: as §1
For assay [4], the system named is Amaranthus retoflexus (AMARE). The assay is described as above. An outline of the steps: as §1
Assay [5] has as its system Setaria faberi (SETFA). Described as above. An outline of the steps:
as §1

Assay [6] relates to Solanum nigrum (SOLNI). The assay is described as above. The method in brief: as §1
Assay [7] deals with Lolium perenne (LOLPE). Briefly: Pre-emergence herbicide test, glasshouse, percentage damage. The method in brief: as §1
The subject of assay [8] is Echinochloa crus-galli (ECHCG). Described as above. The method in brief:
as §1

The subject of assay [9] is Ipomoea hederacea (IPOHE). The assay is described as above. An outline of the steps: as §1
The subject of assay [10] is Amaranthus retoflexus (AMARE). The description is as above. An outline of the steps: as §1
For assay [11], the system named is Setaria faberi (SETFA). The description is as above. The method in brief: as §1
The subject of assay [12] is Solanum nigrum (SOLNI). The description is as above. The method in brief:
as §1

As for `N#Cc1cccc(Oc2ncc(F)cc2F)c1-c1cc(C(F)F)no1` [Compound A160], the “percentage damage caused to the plant, LOLPE” value with Lolium perenne (LOLPE) [1] (1000 g/ha) is given as 5 (5=81-100%). Moreover, the “percentage damage caused to the plant, ECHCG” value in assay [2] (1000 g/ha) was 5 (5=81-100%). The “percentage damage caused to the plant, IPOHE” value in assay [3] (1000 g/ha) is given as 5 (5=81-100%). For the same molecule, the “percentage damage caused to the plant, AMARE” value in assay [4] (1000 g/ha) was 5 (5=81-100%). Also, in the assay with Setaria faberi (SETFA) [5] (1000 g/ha), the “percentage damage caused to the plant, SETFA” value is recorded as 5 (5=81-100%). In addition, in the assay with Solanum nigrum (SOLNI) [6] (1000 g/ha), the “percentage damage caused to the plant, SOLNI” value is 5 (5=81-100%). Further, in the assay with Lolium perenne (LOLPE) [7] (rate 1000 g/ha), the “Pre-emergence Test LOLPE percentage damage (five point scale)” value is 5 (5=81-100%). In addition, the “Pre-emergence Test ECHCG percentage damage (five point scale)” value in [8] (rate 1000 g/ha) is reported as 5 (5=81-100%). Besides, the “Pre-emergence Test IPOHE percentage damage (five point scale)” value in assay [9] (rate 1000 g/ha) is recorded as 5 (5=81-100%). In addition, the “Pre-emergence Test AMARE percentage damage (five point scale)” value in assay [10] (rate 1000 g/ha) is 5 (5=81-100%). Further, in the assay on Setaria faberi (SETFA) [11] (rate 1000 g/ha), the “Pre-emergence Test SETFA percentage damage (five point scale)” value was 5 (5=81-100%). In the assay on Solanum nigrum (SOLNI) [12] (rate 1000 g/ha), the “Pre-emergence Test SOLNI percentage damage (five point scale)” value is reported as 4 (4=61-80%).
In the case of `Fc1cccc(Oc2cc(Cl)ccn2)c1-c1cc(C(F)F)no1` [Compound A60], the “percentage damage caused to the plant, LOLPE” value with Lolium perenne (LOLPE) [1] (1000 g/ha) was 1 (1=0-20%). Moreover, the “percentage damage caused to the plant, ECHCG” value in assay [2] (1000 g/ha) is listed as 1 (1=0-20%). Moreover, the “percentage damage caused to the plant, IPOHE” value in assay [3] (1000 g/ha) was 2 (2=21-40%). In assay [4] (1000 g/ha), the “percentage damage caused to the plant, AMARE” value is 4 (4=61-80%). In addition, the “percentage damage caused to the plant, SETFA” value in the assay with Setaria faberi (SETFA) [5] (1000 g/ha) is 2 (2=21-40%). Further, the “percentage damage caused to the plant, SOLNI” value in the assay on Solanum nigrum (SOLNI) [6] (1000 g/ha) is recorded as 4 (4=61-80%). The “Pre-emergence Test LOLPE percentage damage (five point scale)” value in the assay with Lolium perenne (LOLPE) [7] (rate 1000 g/ha) is 1 (1=0-20%). In addition, in assay [8] (rate 1000 g/ha), the “Pre-emergence Test ECHCG percentage damage (five point scale)” value is reported as 2 (2=21-40%). For the same molecule, the “Pre-emergence Test IPOHE percentage damage (five point scale)” value in [9] (rate 1000 g/ha) was 1 (1=0-20%). For the same molecule, the “Pre-emergence Test AMARE percentage damage (five point scale)” value in assay [10] (rate 1000 g/ha) is 5 (5=81-100%). Moreover, the “Pre-emergence Test SETFA percentage damage (five point scale)” value in the assay on Setaria faberi (SETFA) [11] (rate 1000 g/ha) was 1 (1=0-20%). Also, the “Pre-emergence Test SOLNI percentage damage (five point scale)” value in the assay with Solanum nigrum (SOLNI) [12] (rate 1000 g/ha) is listed as 1 (1=0-20%).
As for `Fc1cc(Br)cnc1Oc1cccc(Cl)c1-c1cc(C(F)F)no1` [Compound A116], the “percentage damage caused to the plant, LOLPE” value in the assay on Lolium perenne (LOLPE) [1] (1000 g/ha) is on record as 5 (5=81-100%). The “percentage damage caused to the plant, ECHCG” value in [2] (1000 g/ha) is reported as 4 (4=61-80%). In [3] (1000 g/ha), the “percentage damage caused to the plant, IPOHE” value is 5 (5=81-100%). Further, the “percentage damage caused to the plant, AMARE” value in assay [4] (1000 g/ha) is 5 (5=81-100%). Also, the “percentage damage caused to the plant, SETFA” value in the assay on Setaria faberi (SETFA) [5] (1000 g/ha) is 5 (5=81-100%). Besides, the “percentage damage caused to the plant, SOLNI” value with Solanum nigrum (SOLNI) [6] (1000 g/ha) is listed as 5 (5=81-100%). Moreover, the “Pre-emergence Test LOLPE percentage damage (five point scale)” value in the assay on Lolium perenne (LOLPE) [7] (rate 1000 g/ha) is 5 (5=81-100%). Further, in [8] (rate 1000 g/ha), the “Pre-emergence Test ECHCG percentage damage (five point scale)” value is listed as 5 (5=81-100%). For the same molecule, the “Pre-emergence Test IPOHE percentage damage (five point scale)” value in assay [9] (rate 1000 g/ha) is 4 (4=61-80%). Besides, the “Pre-emergence Test AMARE percentage damage (five point scale)” value in assay [10] (rate 1000 g/ha) is 5 (5=81-100%). For the same molecule, in the assay with Setaria faberi (SETFA) [11] (rate 1000 g/ha), the “Pre-emergence Test SETFA percentage damage (five point scale)” value is 5 (5=81-100%). In the assay with Solanum nigrum (SOLNI) [12] (rate 1000 g/ha), the “Pre-emergence Test SOLNI percentage damage (five point scale)” value is recorded as 4 (4=61-80%).
As to `N#Cc1cc(Cl)cnc1Oc1cccc(Br)c1-c1cc(C(F)F)no1` [Compound A105], the “percentage damage caused to the plant, LOLPE” value in the assay on Lolium perenne (LOLPE) [1] (1000 g/ha) is listed as 4 (4=61-80%). Moreover, the “percentage damage caused to the plant, ECHCG” value in assay [2] (1000 g/ha) is on record as 4 (4=61-80%). Moreover, the “percentage damage caused to the plant, IPOHE” value in assay [3] (1000 g/ha) was 5 (5=81-100%). Besides, the “percentage damage caused to the plant, AMARE” value in assay [4] (1000 g/ha) is 5 (5=81-100%). In the assay on Setaria faberi (SETFA) [5] (1000 g/ha), the “percentage damage caused to the plant, SETFA” value is on record as 5 (5=81-100%). In addition, in the assay with Solanum nigrum (SOLNI) [6] (1000 g/ha), the “percentage damage caused to the plant, SOLNI” value was 5 (5=81-100%). Moreover, the “Pre-emergence Test LOLPE percentage damage (five point scale)” value with Lolium perenne (LOLPE) [7] (rate 1000 g/ha) is 5 (5=81-100%). The “Pre-emergence Test ECHCG percentage damage (five point scale)” value in assay [8] (rate 1000 g/ha) is reported as 5 (5=81-100%). For the same molecule, the “Pre-emergence Test IPOHE percentage damage (five point scale)” value in assay [9] (rate 1000 g/ha) is 5 (5=81-100%). The “Pre-emergence Test AMARE percentage damage (five point scale)” value in assay [10] (rate 1000 g/ha) was 5 (5=81-100%). The “Pre-emergence Test SETFA percentage damage (five point scale)” value in the assay on Setaria faberi (SETFA) [11] (rate 1000 g/ha) is recorded as 5 (5=81-100%). In addition, the “Pre-emergence Test SOLNI percentage damage (five point scale)” value in the assay on Solanum nigrum (SOLNI) [12] (rate 1000 g/ha) is reported as 5 (5=81-100%).
With `Fc1cnc(Oc2cccc(F)c2-c2cc(C(F)F)no2)c(F)c1` [Compound A10], the “percentage damage caused to the plant, LOLPE” value with Lolium perenne (LOLPE) [1] (500 g/ha) is listed as 5 (5=81-100%). In assay [2] (500 g/ha), the “percentage damage caused to the plant, ECHCG” value was 5 (5=81-100%). In addition, the “percentage damage caused to the plant, IPOHE” value in [3] (500 g/ha) was 5 (5=81-100%). Moreover, in assay [4] (500 g/ha), the “percentage damage caused to the plant, AMARE” value is listed as 5 (5=81-100%). In addition, the “percentage damage caused to the plant, SETFA” value in the assay on Setaria faberi (SETFA) [5] (500 g/ha) is on record as 5 (5=81-100%). The “percentage damage caused to the plant, SOLNI” value in the assay on Solanum nigrum (SOLNI) [6] (500 g/ha) is given as 5 (5=81-100%). Besides, the “Pre-emergence Test LOLPE percentage damage (five point scale)” value with Lolium perenne (LOLPE) [7] (rate 500 g/ha) is recorded as 5 (5=81-100%). The “Pre-emergence Test ECHCG percentage damage (five point scale)” value in assay [8] (rate 500 g/ha) is given as 5 (5=81-100%). In assay [9] (rate 500 g/ha), the “Pre-emergence Test IPOHE percentage damage (five point scale)” value was 5 (5=81-100%). In addition, the “Pre-emergence Test AMARE percentage damage (five point scale)” value in assay [10] (rate 500 g/ha) is reported as 5 (5=81-100%). Besides, the “Pre-emergence Test SETFA percentage damage (five point scale)” value in the assay on Setaria faberi (SETFA) [11] (rate 500 g/ha) is listed as 5 (5=81-100%). Moreover, the “Pre-emergence Test SOLNI percentage damage (five point scale)” value in the assay on Solanum nigrum (SOLNI) [12] (rate 500 g/ha) is 5 (5=81-100%).
